Reference: patent EP1061897B1, “GLYCYLGLYCINE OLEAMIDE IN DERMO-COSMETOLOGY” (Pierre Fabre Dermo-Cosmetique, priority 1998, dated 1999)
Residues, ends and D or L forms follow the SMILES beside them. *: point of attachment. Oleoyl = CCCCCCCC/C=C\CCCCCCCC(=O)*

Key:
collagène de type I = experiment: in vitro acellular glycation of type I collagen, thiobarbituric acid assay; type: biochemical; conditions: glucose 250 mM, 37°C, 8 days, figure 1
Method: L'activité inhibitrice de la glycylglycine est évaluée et comparée à celle de l'aminoguanidine en utilisant un modèle in vitro, acellulaire, de glycation du collagène de type I, selon le protocole suivant.
L'actif anti-glyquant est introduit dans une solution contenant du glucose 250 mM et du collagène de type I. L'aminoguanidine agit notamment en bloquant le groupement carbonyle du produit d'Amadori, stoppant ainsi la glycation à son stade précoce (M. Brownlee et coll., Science, 1986 (6), 232, 1629-1632).
Le mélange est incubé à 37°C pendant 8 jours puis le glucose non fixé est éliminé par dialyse. Après lyophilisation du collagène, on procède à un dosage à l'acide thiobarbiturique pour déterminer le taux de glycation.
Cette méthode permet le dosage de sucres liés aux cétoamines.
Le lyophilisat, après être pesé, est dissous dans l'acide oxalique 0,5 M. On laisse incuber à 120°C pendant 1 heure, puis à 40°C pendant 45 min après avoir ajouté de l'acide thiobarbiturique à 50 mM.
La densité optique du mélange, lue à 443 nm, est proportionnelle au taux de glycation exprimé en nmoles HMF formé par mg de lyophilisat.

fibroblastes = experiment: Bell-type dermal equivalent, contraction kinetics of fibroblast-seeded collagen lattice; type: cell-based; conditions: followed over 7 days; 0,005 % oléamide de glycylglycine, 0,003 % acide oléique, 0,002 % gly-gly; figure 3
Excerpt: Pour objectiver cette activité, on utilise le modèle cellulaire de derme équivalent de type Bell. Il permet, grâce à une mise en culture de fibroblastes sur un support de collagène, de reproduire in vitro une structure tissulaire tridimensionnelle et de rendre compte des interactions fibroblaste-matrice, le fibroblaste étant impliqué dans le maintien de la structure dermique.
La capacité des fibroblastes, ensemencés dans un milieu défini avec ou sans actif, à organiser les fibres de collagène les unes par rapport aux autres et de les faire se rétracter, se concrétise par une diminution de surface de ce derme. Ce test traduit la capacité du fibroblaste à modeler, par ce biais, un véritable tissu. On suit donc la cinétique de contraction de ce derme sur 7 jours, cette cinétique étant liée au métabolisme de la cellule.
Les concentrations en actifs employées correspondent à des doses auxquelles ces actifs se sont avérés non cytotoxiques et non prolifératifs.

élastase = experiment: in vitro acellular anti-elastase test, elastase diffusion in agarose gel containing orcein-stained insoluble elastin; type: biochemical; conditions: figure 2
Excerpt: La méthode utilisée est une technique in vitro acellulaire, basée sur la diffusion d'élastase dans un gel d'agarose contenant de l'élastine insoluble colorée par l'orcéïne et dispersée dans le gel avec ou sans principe actif. La lecture du diamètre de lyse permet de calculer le pourcentage d'inhibition de l'enzyme par le principe actif.

activité anti-élastase (aire de lyse) (élastase) | SMILES | activité anti-glyquante (taux de glycation, nmoles HMF/mg) (collagène de type I; at 100 mM, compared with aminoguanidine) | activité anti-glyquante (taux de glycation, nmoles HMF/mg) (collagène de type I; 1 mM, 10 mM and 100 mM) | cinétique de rétraction (pourcentage de rétraction) (fibroblastes)
– | NCC(=O)NCC(=O)O [glycylglycine] (H-Gly-Gly-OH) | activité équivalent à celle de l'aminoguanidine | avec un effet-dose | –
activité anti-élastase importante | CCCCCCCC/C=C\CCCCCCCC(=O)NCC(=O)NCC(=O)O [oléamide de glycylglycine] (Oleoyl-Gly-Gly-OH) | – | – | plus efficace que l'acide oléique, l'association acide oléique/glycylglycine, la glycylglycine
